Counter-ions that a name gives are not always drawn.
What was measured:
[1] = test system: MCF-7 cells; assay: Human mammary cancer (MCF-7) growth inhibition test, neutral red staining; assay type: cell-based; conditions: MCF7, medium with 10^-8M estradiol, 72 hours culture with sample
Method: Human mammary cancer (MCF-7) growth inhibition test;
Each 0.1 ml of MCF-7 cells which had been prepared to 5 x 10^4/ml using a medium (referred to as Medium B hereinafter) prepared by adding 10% bovine fetal serum, 10^-8M estradiol (manufactured by Sigma), 100 units/ml penicillin and 100 µg/ml streptomycin to medium RPMI1640 was distributed in each well of 96 well-microtiter plate. The plate was cultured at 37 °C for 20 hours in a CO2 gas incubator, each 0.05 ml of samples (test compounds) which had been appropriately diluted with Medium B was added thereto and the mixture was cultured at 37 °C for 72 hours in a CO2 gas incubator. Supernatant was removed, each 0.1 ml of Medium B containing 0.02% neutral red was added to the residue, the mixture was cultured at 37 °C for 1 hour in a CO2 gas incubator and the cells were stained. IC50 was calculated according to the same manner as that in Test 2.

[2] = test system: HeLaS3 cells; assay: Human uterine cervix carcinoma (HeLaS3) growth inhibition test, neutral red staining; assay type: cell-based; conditions: HeLa S3, 72 hours culture with sample, absorbance at 550 nm
Method: Human uterine cervix carcinoma (HeLaS3) growth inhibition test;
Each 0.1 ml of HeLaS3 cells which had been prepared to 3 x 10^4/ml using a medium (referred to as Medium A hereinafter) consisted of MEM medium, 2 mM glutamine and 10% bovine fetal serum was distributed in each well of 96 well-microtiter plate. The plate was cultured at 37 °C for 20 hours in a CO2 gas incubator, each 0.05 ml of samples (test compounds) which had been appropriately diluted with Medium A was added thereto and the mixture was cultured at 37 °C for 72 hours in a CO2 gas incubator. Supernatant was removed, each 0.1 ml of Medium A containing 0.02% neutral red was added to the residue, the mixture was cultured at 37 °C for 1 hour in a CO2 gas incubator and the cells were stained. Supernatant was removed and the residue was washed once with saline. Then, the pigment was extracted with 0.001N hydrochloric acid/30% ethanol and the absorbance at 550 nm was measured with a microplatereader.

Compound	IC50 [1] [µM]	IC50 [2] [µM]
Nc1ccc(-c2cc(=O)c3c(N)ccc(Cl)c3o2)cc1 [Compound 2, 5-Amino-2-(4-aminophenyl)-8-chloro-4H-1-benzopyran-4-one]	0.37	3.2
Nc1ccc(-c2cc(=O)c3c(N)c(Cl)cc(Cl)c3o2)cc1 [Compound 3, 5-Amino-2-(4-aminophenyl)-6,8-dichloro-4H-1-benzopyran-4-one]	22	33
Nc1ccc(-c2cc(=O)c3c(N)ccc(Br)c3o2)cc1 [Compound 5, 5-Amino-2-(4-aminophenyl)-8-bromo-4H-1-benzopyran-4-one]		6.1
Nc1ccc(-c2cc(=O)c3c(N)c(Br)cc(Br)c3o2)cc1 [Compound 6, 5-Amino-2-(4-aminophenyl)-6,8-dibromo-4H-1-benzopyran-4-one]	27	
Nc1ccc(-c2cc(=O)c3c(N)c(F)ccc3o2)cc1 [Compound 8, 5-Amino-2-(4-aminophenyl)-6-fluoro-4H-1-benzopyran-4-one]	0.14	
Nc1ccc(-c2cc(=O)c3c(N)ccc(F)c3o2)cc1 [Compound 10, 5-Amino-2-(4-aminophenyl)-8-fluoro-4H-1-benzopyran-4-one]	0.25	21
NCCCNc1ccc(-c2cc(=O)c3c(N)ccc(F)c3o2)cc1 [Compound 20, 5-Amino-2-[4-[(3-aminopropyl)amino]phenyl]-8-fluoro-4H-1-benzopyran-4-one]	0.094	9.3
NCCCNc1ccc(-c2cc(=O)c3c(N)c(F)cc(F)c3o2)cc1F [Compound 30, 5-Amino-2-[4-(3-aminopropylamino)-3-fluorophenyl]-6,8-difluoro-4H-1-benzopyran-4-one]	0.039	14
Nc1c(Cl)cc(-c2cc(=O)c3c(N)c(F)cc(F)c3o2)cc1Cl [Compound 35, 5-Amino-2-(4-amino-3,5-dichlorophenyl)-6,8-difluoro-4H-1-benzopyran-4-one]	0.17	
Nc1c(Br)cc(-c2cc(=O)c3c(N)c(F)cc(F)c3o2)cc1Br [Compound 36, 5-Amino-2-(4-amino-3,5-dibromophenyl)-6,8-difluoro-4H-1-benzopyran-4-one]	0.61	
CN(C)c1ccc(-c2cc(=O)c3c(N)c(F)cc(F)c3o2)cc1F [Compound 38, 5-Amino-6,8-difluoro-2-[4-(N,N-dimethylamino)-3-fluorophenyl]-4H-1-benzopyran-4-one]		12
CN(C)CCNc1ccc(-c2cc(=O)c3c(N)c(F)cc(F)c3o2)cc1F [Compound 40, 5-Amino-2-[4-[2-(N',N'-dimethylamino)ethylamino]-3-fluorophenyl]-6,8-difluoro-4H-1-benzopyran-4-one]	0.23	
Nc1c(F)cc(F)c2oc(-c3ccc(NCCN4CCCC4)c(F)c3)cc(=O)c12 [Compound 41, 5-Amino-6,8-difluoro-2-[3-fluoro-4-[2-(pyrrolidin-1-yl)ethylamino]phenyl]-4H-1-benzopyran-4-one]		5
Nc1c(F)cc(F)c2oc(-c3ccc(NCCN4CCOCC4)c(F)c3)cc(=O)c12 [Compound 42, 5-Amino-6,8-difluoro-2-[3-fluoro-4-(2-morpholinoethylamino)phenyl]-4H-1-benzopyran-4-one]	6.1	
CCOC(=O)CNc1ccc(-c2cc(=O)c3c(N)c(F)cc(F)c3o2)cc1F [Compound 44, 5-Amino-6,8-difluoro-2-(4-ethyoxycarbonylmethylamino-3-fluorophenyl)-4H-1-benzopyran-4-one]	0.36	
COCCCNc1ccc(-c2cc(=O)c3c(N)c(F)cc(F)c3o2)cc1F [Compound 46, 5-Amino-6,8-difluoro-2-[3-fluoro-4-(3-methoxypropylamino)phenyl]-4H-1-benzopyran-4-one]	0.11	
Nc1c(F)cc(F)c2oc(-c3ccc(NCCCCCCn4ccnc4)c(F)c3)cc(=O)c12 [Compound 52, 5-Amino-6,8-difluoro-2-[3-fluoro-4-[6-(imidazol-1-yl)hexylamino]phenyl]-4H-1-benzopyran-4-one]	2	4.4
CN(C)CCCCCCNc1ccc(-c2cc(=O)c3c(N)c(F)cc(F)c3o2)cc1F [Compound 53, 5-Amino-6,8-difluoro-2-[4-[6-(N',N'-dimethylamino)hexylamino]-3-fluorophenyl]-4H-1-benzopyran-4-one]	6.2	6.8

Compound	IC50 [1] [µM]	IC50 [2] [µM]
Nc1c(F)cc(F)c2oc(-c3ccc(NCCCCCCN4CCCC4)c(F)c3)cc(=O)c12 [Compound 54, 5-Amino-6,8-difluoro-2-[3-fluoro-4-[6-(pyrrolidin-1-yl)hexylamino]phenyl]-4H-1-benzopyran-4-one]	5.9	6.1
Nc1c(F)cc(F)c2oc(-c3ccc(NCCCCCCN4CCOCC4)c(F)c3)cc(=O)c12 [Compound 55, 5-Amino-6,8-difluoro-2-[3-fluoro-4-(6-morpholinohexylamino)phenyl]-4H-1-benzopyran-4-one]		11
CCOC(=O)CCCCCNc1ccc(-c2cc(=O)c3c(N)c(F)cc(F)c3o2)cc1F [Compound 56, 5-Amino-6,8-difluoro-2-[4-(5-ethoxycarbonylpentylamino)-3-fluorophenyl]-4H-1-benzopyran-4-one]	0.91	
Nc1c(F)cc(F)c2oc(-c3ccc(NCCCCCC(=O)O)c(F)c3)cc(=O)c12 [Compound 57, Sodium salt of 5-amino-2-[4-(5-carboxypentylamino)-3-fluorophenyl]-6,8-difluoro-4H-1-benzopyran-4-one]	0.73	
CCCCCCNc1c(F)cc(F)c2oc(-c3ccc(N(C)C)c(F)c3)cc(=O)c12 [Compound 58, 6,8-Difluoro-2-[4-(N,N-dimethyl)amino-3-fluorophenyl]-5-hexylamino-4H-1-benzopyran-4-one]	0.34	
CN(C)c1ccc(-c2cc(=O)c3c(NCCCCCCO)c(F)cc(F)c3o2)cc1F [Compound 60, 6,8-Difluoro-2-[4-(N,N-dimethyl)amino-3-fluorophenyl]-5-(6-hydroxyhexylamino)-4H-l-benzopyran-4-one]	0.34	
COCCCCCCNc1c(F)cc(F)c2oc(-c3ccc(N(C)C)c(F)c3)cc(=O)c12 [Compound 61, 6,8-Difluoro-2-[4-(N,N-dimethyl)amino-3-fluorophenyl]-5-(6-methoxyhexylamino)-4H-1-benzopyran-4-one]	0.63	
CN(C)CCCCCCNc1c(F)cc(F)c2oc(-c3ccc(N(C)C)c(F)c3)cc(=O)c12 [Compound 62, 6,8-Difluoro-2-[4-(N,N-dimethyl)amino-3-fluorophenyl]-5-[6-(N',N'-dimethylamino)hexylamino]-4H-1-benzopyran-4-one]		7.1
CN(C)c1ccc(-c2cc(=O)c3c(NCCCCCCN4CCCC4)c(F)cc(F)c3o2)cc1F [Compound 63, 6,8-Difluoro-2-[4-(N,N-dimethyl)amino-3-fluorophenyl]-5-[6-(pyrrolidin-1-yl)hexylamino]-4H-1-benzopyran-4-one]		7
CN(C)c1ccc(-c2cc(=O)c3c(NCCCCCCn4ccnc4)c(F)cc(F)c3o2)cc1F [Compound 64, 6,8-Difluoro-2-[4-(N,N-dimethyl)amino-3-fluorophenyl]-5-[6-(imidazol-1-yl)hexylamino]-4H-1-benzopyran-4-one]		3
CN(C)c1ccc(-c2cc(=O)c3c(NCCCCCCN)c(F)cc(F)c3o2)cc1F [Compound 65, 5-(6-Aminohexylamino)-6,8-difluoro-2-[4-(N,N-dimethyl)amino-3-fluorophenyl]-4H-1-benzopyran-4-one]		7
CCCCCCNc1c(F)cc(F)c2oc(-c3ccc(N)c(F)c3)cc(=O)c12 [Compound 67, 2-(4-Amino-3-fluorophenyl)-6,8-difluoro-5-hexylamino-4H-1-benzopyran-4-one]		9.4
CC(Cl)CCCCNc1c(F)cc(F)c2oc(-c3ccc(N)c(F)c3)cc(=O)c12 (stereo not shown) [Compound 69, 2-(4-Amino-3-fluorophenyl)-5-(5-chlorohexylamino)-6,8-difluoro-4H-1-benzopyran-4-one]	6	
CC(C)CCCNc1c(F)cc(F)c2oc(-c3ccc(N)c(F)c3)cc(=O)c12 [Compound 71, 2-(4-Amino-3-fluorophenyl)-6,8-difluoro-5-(4-methylpentylamino)-4H-1-benzopyran-4-one]		12
CCCCCCNc1c(F)cc(F)c2oc(-c3ccc(NCC(=O)O)c(F)c3)cc(=O)c12 [Compound 75, 2-(4-Carboxymethylamino-3-fluorophenyl)-6,8-difluoro-5-hexylamino-4H-1-benzopyran-4-one]		16
C=CCCCCNc1c(F)cc(F)c2oc(-c3ccc(NC)c(F)c3)cc(=O)c12 [Compound 77, 6,8-Difluoro-2-(3-fluoro-4-methylaminophenyl)-5-(5-hexenylamino)-4H-1-benzopyran-4-one]		11
CCCCCNc1c(F)cc(F)c2oc(-c3ccc(NCCCN)c(F)c3)cc(=O)c12 [Compound 79, 2-[4-(3-Aminopropylamino)-3-fluorophenyl]-6,8-difluoro-5-pentylamino-4H-1-benzopyran-4-one]		7.5

From patent EP0556720B1, “5-Aminoflavone derivatives” (KYOWA HAKKO KOGYO CO., LTD., priority 1992, dated 1993)
